Assay results reported in ChEMBL document CHEMBL1130916, “Design and synthesis of conformationally-constrained MMP inhibitors” (Bioorg Med Chem Lett, 1998).

Columns and labels:
[1] = biological target: Stromelysin-1 (Homo sapiens, UniProt P08254); assay: Inhibition of matrix metalloprotease-3 (MMP-3)
[2] = biological target: T1, Interstitial collagenase (Homo sapiens, UniProt P03956); assay: Inhibition of matrix metalloprotease-1 (MMP-1)
T1 sequence (P03956 whole entry): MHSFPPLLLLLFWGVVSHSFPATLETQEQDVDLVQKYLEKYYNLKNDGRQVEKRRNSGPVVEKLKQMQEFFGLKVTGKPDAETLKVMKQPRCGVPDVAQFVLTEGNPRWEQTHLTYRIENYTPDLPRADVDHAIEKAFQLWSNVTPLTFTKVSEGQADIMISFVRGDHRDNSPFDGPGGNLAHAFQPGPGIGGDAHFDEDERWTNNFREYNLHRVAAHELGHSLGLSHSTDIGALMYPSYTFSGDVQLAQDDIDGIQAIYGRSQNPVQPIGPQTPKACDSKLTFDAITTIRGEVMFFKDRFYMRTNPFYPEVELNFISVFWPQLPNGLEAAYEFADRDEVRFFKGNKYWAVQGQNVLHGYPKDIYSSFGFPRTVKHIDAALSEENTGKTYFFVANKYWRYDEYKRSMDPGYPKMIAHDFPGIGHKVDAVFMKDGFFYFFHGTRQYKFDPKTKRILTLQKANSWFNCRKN

Stromelysin-1, sequence (P08254 whole entry): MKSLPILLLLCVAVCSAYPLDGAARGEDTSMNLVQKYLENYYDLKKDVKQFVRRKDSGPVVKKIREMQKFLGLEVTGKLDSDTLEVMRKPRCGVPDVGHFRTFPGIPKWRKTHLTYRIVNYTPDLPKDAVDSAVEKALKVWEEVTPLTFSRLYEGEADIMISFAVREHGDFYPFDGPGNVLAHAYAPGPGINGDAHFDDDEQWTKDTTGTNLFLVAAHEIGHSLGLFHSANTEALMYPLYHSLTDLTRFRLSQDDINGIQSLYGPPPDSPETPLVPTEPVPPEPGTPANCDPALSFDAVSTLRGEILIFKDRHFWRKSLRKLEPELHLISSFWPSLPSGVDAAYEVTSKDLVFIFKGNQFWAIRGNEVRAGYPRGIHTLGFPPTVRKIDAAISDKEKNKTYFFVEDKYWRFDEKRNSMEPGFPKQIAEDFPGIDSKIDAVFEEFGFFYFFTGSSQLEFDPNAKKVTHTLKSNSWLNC

COC(=O)CN1CCCC[C@H](NC(=O)[C@H](CC(C)C)[C@@H](C)C(=O)NO)C1=O
IC50 [1]: 0.215 µM
IC50 [2]: 0.049 µM

CCCCCCCC[C@@H](C(=O)N[C@H]1CCCCN(CCOC)C1=O)[C@@H](C)C(=O)NO
IC50 [1]: 0.03 µM
IC50 [2]: 0.112 µM

CCCCCCCC[C@H](CC(=O)NO)C(=O)N[C@H]1CCCCN(CCOC)C1=O
IC50 [1]: 0.25 µM
IC50 [2]: 1.89 µM

CCCCCCCC[C@H](CC(=O)NO)C(=O)N[C@H]1CCCCN(CC(=O)OC)C1=O
IC50 [1]: 1.04 µM
IC50 [2]: 0.011 µM

CCC[C@@H](C(=O)NO)[C@@H](CC(C)C)C(=O)N[C@H]1CCCCN(CC(=O)OC)C1=O
IC50 [1]: 0.058 µM
IC50 [2]: 0.096 µM

COCCN1CCCC[C@H](NC(=O)[C@H](CC(C)C)[C@@H](CCCO)C(=O)NO)C1=O
IC50 [2]: 0.051 µM

CCCCCCCC[C@@H](C(=O)N[C@H]1CCCCN(CC(=O)OC)C1=O)[C@@H](C)C(=O)NO
IC50 [1]: 0.021 µM
IC50 [2]: 0.057 µM

CC(C)C[C@H](CC(=O)NO)C(=O)N[C@H]1CCCCNC1=O
IC50 [1]: 11.7 µM
IC50 [2]: 3.9 µM

CCCCC[C@H](CC(=O)NO)C(=O)N[C@H]1CCCCN(CC(=O)OC)C1=O
IC50 [1]: 0.824 µM
IC50 [2]: 0.129 µM

CC(C)C[C@H](CC(=O)NO)C(=O)N[C@H]1CCCCN(CCCOc2ccccc2)C1=O
IC50 [1]: 1.42 µM
IC50 [2]: 0.14 µM

CC(C)C[C@H](CC(=O)NO)C(=O)N[C@H]1CCCCN(CCOc2ccccc2)C1=O
IC50 [1]: 0.518 µM
IC50 [2]: 0.117 µM

CCC[C@@H](C(=O)NO)[C@@H](CC(C)C)C(=O)N[C@H]1CCCCN(CCOC)C1=O
IC50 [1]: 0.094 µM
IC50 [2]: 0.083 µM

CCCCCCCCC(C(=O)N[C@H]1CCCCN(CCOC)C1=O)C(C)C(=O)NO (single isomer, unassigned)
IC50 [1]: 0.108 µM
IC50 [2]: 4.36 µM

COC(=O)CN1CCCC[C@H](NC(=O)[C@@H](CC(=O)NO)CC(C)C)C1=O
IC50 [1]: 2.9 µM
IC50 [2]: 0.225 µM
